Biological target: T1, COX2 (Rattus norvegicus, UniProt P35355)
T1 construct: in-vitro autoradiography in rat brain slices; from tissue; host or cells: rat brain slices
T1 sequence (P35355 18-604): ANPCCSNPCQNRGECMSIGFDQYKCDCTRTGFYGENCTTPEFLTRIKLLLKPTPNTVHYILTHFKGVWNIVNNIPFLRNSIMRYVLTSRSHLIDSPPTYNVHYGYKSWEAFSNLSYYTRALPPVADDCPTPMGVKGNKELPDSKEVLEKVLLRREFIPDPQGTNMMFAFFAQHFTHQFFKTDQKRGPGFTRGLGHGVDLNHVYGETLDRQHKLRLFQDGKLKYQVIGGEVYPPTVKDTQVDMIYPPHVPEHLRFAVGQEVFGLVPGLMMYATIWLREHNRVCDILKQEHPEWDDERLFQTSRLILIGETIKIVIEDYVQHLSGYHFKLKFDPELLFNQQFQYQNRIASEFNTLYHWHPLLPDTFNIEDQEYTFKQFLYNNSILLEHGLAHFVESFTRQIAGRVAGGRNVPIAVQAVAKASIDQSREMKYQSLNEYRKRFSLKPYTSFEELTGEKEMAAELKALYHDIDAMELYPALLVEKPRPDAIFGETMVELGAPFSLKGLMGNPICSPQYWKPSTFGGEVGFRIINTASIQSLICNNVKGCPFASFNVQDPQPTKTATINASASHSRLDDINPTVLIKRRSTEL
Experiment: in-vitro autoradiography in rat brain slices (self-block)
Format: binding
Text: Three ligands have been evaluated with in-vitro autoradiography in rat brain slices. Radiolabeling was accomplished via methylation of either a sulfinate precursor ([^11C]Rofecoxib), hydroxyl precursor ([^11C]MC1) or thiol precursor ([^11C]98) using [^11C]-methyl iodide and offers chemical flexibility for radiolabeling of future candidates. […] This translated into a ˜2-fold increase in COX2 specific binding in a rat brain slice in-vitro autoradiography. […] These properties enable us to better understand the contribution of potency and free fraction to the ligand's specific binding.
Three newly synthesized COX2 ligands were successfully radiolabeled using this strategy and first evaluated by in-vitro autoradiography in rat brain slices using self-block experiments (FIG. 5). […] [^11C]36 was also evaluated for specific binding using self-block experiments in human post-mortem brain tissues (globus pallidus) from three Huntington's disease (HD) patients (FIG. 6). COX2 protein levels were quantified using immunostaining and defined as high, medium and low, respectively.

With `CS(=O)(=O)c1ccc(-c2cncc(NCc3cccs3)n2)cc1` [Compound 98] the “increase in COX2 specific binding” value (rat brain slice in-vitro autoradiography, compared to MC1) was ~2 fold and the specific binding (rat brain slices in vitro autoradiography, self-block, compared to earlier tracers) was “increase in specific binding”.

From patent publication US20220348590A1, “CYCLOOXYGENASE-2 INHIBITORS AND USES THEREOF” (The Board Institute, Inc., priority 2019, published 2022)
